Experimental findings from PMC3261798, “Design, Synthesis, and Biological Evaluation of PKD Inhibitors” (Pharmaceutics, 2011) are described below.

Each structure is given as a SMILES string. Where only a bound is given, the exact number is not on record here.

Data set [1] concerns the target T1, PKD1 (Homo sapiens, UniProt Q15139).
T1 sequence (Q15139 1-912): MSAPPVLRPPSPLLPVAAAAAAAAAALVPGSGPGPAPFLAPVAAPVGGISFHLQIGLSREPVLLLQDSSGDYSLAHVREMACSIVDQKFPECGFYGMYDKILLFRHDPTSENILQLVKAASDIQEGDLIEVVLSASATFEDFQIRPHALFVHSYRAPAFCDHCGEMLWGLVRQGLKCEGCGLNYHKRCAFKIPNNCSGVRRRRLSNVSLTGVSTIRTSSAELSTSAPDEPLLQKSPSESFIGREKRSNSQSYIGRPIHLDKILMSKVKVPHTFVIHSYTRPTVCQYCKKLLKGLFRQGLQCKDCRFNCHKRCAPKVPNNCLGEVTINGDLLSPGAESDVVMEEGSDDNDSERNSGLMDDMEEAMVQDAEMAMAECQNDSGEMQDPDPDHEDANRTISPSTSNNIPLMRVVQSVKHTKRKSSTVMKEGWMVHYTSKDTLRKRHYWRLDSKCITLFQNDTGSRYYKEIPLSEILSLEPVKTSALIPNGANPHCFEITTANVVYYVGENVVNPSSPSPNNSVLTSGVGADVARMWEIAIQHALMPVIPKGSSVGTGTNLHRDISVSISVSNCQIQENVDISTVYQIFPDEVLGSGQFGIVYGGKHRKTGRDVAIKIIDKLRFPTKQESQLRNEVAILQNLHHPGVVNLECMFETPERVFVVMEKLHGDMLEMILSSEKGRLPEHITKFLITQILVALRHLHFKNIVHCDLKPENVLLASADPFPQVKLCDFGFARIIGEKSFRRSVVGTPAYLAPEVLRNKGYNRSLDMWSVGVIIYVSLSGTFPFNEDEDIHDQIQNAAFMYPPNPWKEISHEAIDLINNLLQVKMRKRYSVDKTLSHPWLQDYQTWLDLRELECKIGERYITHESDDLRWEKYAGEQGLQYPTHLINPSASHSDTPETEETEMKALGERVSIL
The data set is described as follows: IMAP-based PKD Fluorescence Polarization (FP) assay, automated HTS format. The format is biochemical. As to conditions: mean ± SEM, n = number of independent experiments. The protocol:
An automated, HTS formatted IMAP-based PKD Fluorescence Polarization (FP) assay was used to assess the specificity of the PKD analogs as previously described. […] Kinase reactions were incubated for 90 min at room temperature and stopped by the addition of IMAP binding reagent. Assay plates were then incubated for 2 h and IMAP-based FP data were captured on a Molecular Devices Spectra-Max M5 (Sunnyvale, CA, USA).

Data set [2] has as its target T1, PKD1. Kind of data set: In vitro radiometric PKD kinase activity assay. The settings on record: mean ± SEM, n = number of independent experiments; read-out: IC50 Radiometric PKD1. The format is biochemical. Set-up: purchased Biomol International. The procedure:
In vitro radiometric PKD kinase assays were conducted as previously described. Briefly, 50 ng recombinant human PKD1 (Biomol International, Plymouth Meeting, PA, USA) was incubated at 30 °C for 10 min with a reaction mixture containing 2.5 μg syntide-2 (Sigma), 70 μM ATP, and 1 μCi γ-^32 P-ATP (PerkinElmer, Boston, MA, USA) in kinase buffer (50 mM Tris-HCl pH 7.5, […], and 10 mM […]). 25 μL of the reaction mixture was then spotted on Whatman P81 filter paper (Whatman Inc., Clifton, NJ, USA), and filter papers were washed three times with 0.5% phosphoric acid, dried, then counted using a Beckman LS6500 multi-purpose scintillation counter.

Data set [3] has as its target T1, PKD1. The data set is described as follows: % PKD1 activity at 1 μM (single concentration; assay format not stated). The format is biochemical. The settings on record: compound at 1 μM.

`COc1ccc2oc3c(c2c1)CCCNC3=O` [kb-NB77-56, 7-Methoxy-2,3,4,5-tetrahydro-[1]benzoxolo[2,3-c]azepin-1-one] yielded a melting point of 261 to 263 °C. This compound came in with an IC50 in data set [1] of 2.4 ± 0.14 µM. Also, the IC50 in data set [2] turned out to be 2.39 µM.
With `C=CCOc1ccc2oc3c(c2c1)CCCNC3=O` [kb-NB77-84, 7-Allyloxy-2,3,4,5-tetrahydro-[1]benzoxolo[2,3-c]azepin-1-one], the melting point is 198 to 200 °C. Moreover, the IC50 in data set [1] stood at 2.6 ± 0.2 µM. In addition, in data set [2], the IC50 amounted to 1.23 µM.
`O=C1NCCCc2c1oc1ccc(O)c(Cl)c21` [kb-NB77-88, 6-Chloro-7-hydroxy-2,3,4,5-tetrahydro-[1]benzoxolo[2,3-c]azepin-1-one] displayed a melting point greater than 300 °C. In data set [1], this compound displayed an IC50 of 1.4 ± 0.1 µM. For the same compound, the IC50 in data set [2] was found to be 0.89 µM.
As to `C=CCc1c(O)ccc2oc3c(c12)CCCNC3=O` [kb-NB96-02, 6-Allyl-7-hydroxy-2,3,4,5-tetrahydro-[1]benzoxolo[2,3-c]azepin-1-one], the melting point lay in the range of 255 to 257 °C. For the same compound, the IC50 in data set [1] was 2.4 ± 0.3 µM. For the same compound, the IC50 in data set [2] stood at 1.58 µM.
The like results for `O=C1NCCCc2c1oc1ccc(O)c(F)c21` [kb-NB96-21, 6-Fluoro-7-hydroxy-2,3,4,5-tetrahydro-[1]benzoxolo[2,3-c]azepin-1-one] were, in that order, greater than 300 °C, 1.3 ± 0.05 µM and 0.24 µM.
The like results for `O=C1NCCc2c1oc1ccc(O)cc21` [kb-NB123-23A, 6-Hydroxy-3,4-dihydrobenzoxolo[2,3-c]pyridin-1(2H)-one] were, in that order, 265 to 268 °C, 12.6 ± 1.3 µM and 1.41 µM.
The like results for `O=C1NCCc2c1[nH]c1ccc(O)cc21` [kb-NB123-59, 2,3,4,9-Tetrahydro-6-hydroxy-1H-pyrido[3,4-b]indol-1-one] were, in that order, 244 to 247 °C, 19.4 ± 1.4 µM and 1.57 ± 0.2 µM.
`O=C1NCCC(=O)c2c1oc1ccc(O)cc21` [kb-NB123-63, 7-Hydroxy-3,4-dihydro-[1]benzoxolo[2,3-c]azepine-1,5(2H)-dione] came in with a melting point greater than 300 °C. Besides, 14.9 ± 1.2 µM corresponded to half-maximal inhibition in data set [1] (IC50). Besides, the IC50 in data set [2] amounted to 0.85 ± 0.11 µM.
Taken in the same sequence, the figures for `O=C1NCCC(O)c2c1oc1ccc(O)cc21` (stereo not drawn) [kb-NB123-89, 5,7-Dihydroxy-2,3,4,5-tetrahydro-[1]benzoxolo[2,3-c]azepin-1-one] were 280 to 282 °C, 24.1 ± 0.71 µM and 1.23 ± 0.21 µM.
Taken in the same sequence, the figures for `O=C1NCCC(=NNc2ccccc2)c2c1oc1ccc(O)cc21` [kb-NB142-05, 7-Hydroxy-5-(2-phenylhydrazono)-2,3,4,5-tetrahydro-[1]benzoxolo[2,3-c]azepin-1-one] were 234 to 236 °C, 21.7 ± 0.52 µM and 1.13 µM.
The compound `Nc1ccc2[nH]c3c(c2c1)CCNC3=O` [kb-NB142-08, 6-Amino-2,3,4,9-tetrahydro-1H-pyrido[3,4-b]indol-1-one] showed a melting point of 280 to 282 °C. The IC50 in data set [1] stood at 74.4 ± 2.2 µM. For the same compound, the IC50 in data set [2] came to 15.7 ± 0.19 µM.
The compound `O=C1NCCC(=NOCc2ccccc2)c2c1oc1ccc(O)cc21` [kb-NB142-10, 5-(Benzyloxyimino)-7-hydroxy-2,3,4,5-tetrahydro-[1]benzoxolo[2,3-c]azepin-1-one] displayed a melting point of 103 to 110 °C. The “IC50 IMAP-FP PKD1” value in data set [1] was “not inhibitory”.
The compound `Cc1ccc(S(=O)(=O)NN=C2CCNC(=O)c3oc4ccc(O)cc4c32)cc1` [kb-NB142-11, 7-Hydroxy-5-[2-{(4-methylphenyl)sulfony}hydrazono]-2,3,4,5-tetrahydro-[1]benzoxolo[2,3-c]azepin-1-one] showed a melting point of 220 to 224 °C. The compound further had an IC50 in data set [1] of 38.2 ± 1.17 µM.
In turn, `NCCN1CCSc2c(sc3ccc(O)cc23)C1=O` [kb-NB165-75, 2,3-Dihydro-4-(2-aminoethyl)-9-hydroxy-[1]benzothieno[2,3-f]-1,4-thiazepin-5(2H)-one] came in with a melting point of 250 to 254 °C. In data set [3], this compound returned a remaining activity at 1 µM of 55.6%. Moreover, in data set [2], the IC50 is 0.757 µM.
The like results for `c1ccc(COc2ccc3sc4c(c3c2)SCCNC4)cc1` [kb-NB165-81, 2,3,4,5-Tetrahydro-9-benzyloxy-[1]benzothieno[2,3-f]-1,4-thiazepine] were, in that order, 144 to 145 °C, 78.3% and 39.6 µM.
For `Oc1ccc2sc3c(c2c1)SCCNC3` [kb-NB165-83, 2,3,4,5-Tetrahydro-9-hydroxy-[1]benzothieno[2,3-f]-1,4-thiazepine], the melting point was 182 to 184 °C (dec.). Moreover, the remaining activity at 1 µM in data set [3] turned out to be 92.4%. Besides, the IC50 in data set [2] is 16.4 µM.
On to `O=C1NCCCSc2c1sc1ccc(OCc3ccccc3)cc21` [kb-NB165-89, 2,3,4,5-Tetrahydro-10-benzyloxybenzo[b]thieno[2,3-f]-1,5-thiazocin-6-one], for which the melting point fell in the range of 198 to 199 °C. In data set [3], this compound showed a remaining activity at 1 µM of 84.3%. In addition, the IC50 in data set [2] was 21.7 µM.
Compound `COc1ccc2sc3c(c2c1)SCCCNC3=O` [kb-NB184-02, 2,3,4,5-Tetrahydro-10-methoxybenzo[b]thieno[2,3-f]-1,5-thiazocin-6-one] had a melting point of 185 to 188 °C. In data set [3], this compound came in with a remaining activity at 1 µM of 29.5%. In addition, the IC50 in data set [2] worked out at 0.19 ± 0.03 µM.
Consider `O=C1NCCSc2c1[s+]([O-])c1ccc(O)cc21` (stereo not drawn) [kb-NB184-22, 3,4-Dihydro-9-hydroxy-6-oxide-[1]benzothieno[2,3-f]-1,4-thiazepin-5(2H)-one], for which the melting point was 160 to 163 °C (dec.). This compound also came in with a remaining activity at 1 µM in data set [3] of 66.5 ± 6.1%.
As to `COc1ccc2c(c1)c1c([s+]2[O-])C(=O)NCCS1` (stereo not drawn) [kb-NB184-25, 3,4-Dihydro-9-methoxy-6-oxide-[1]benzothieno[2,3-f]-1,4-thiazepin-5(2H)-one], the melting point was 284 to 287 °C. This compound also showed a remaining activity at 1 µM in data set [3] of 50.4 ± 2.3%. The IC50 in data set [2] was determined as 1.08 µM.
Consider `O=C1NCCCOc2c1sc1ccc(OCc3ccccc3)cc21` [kb-NB184-36, 2,3,4,5-Tetrahydro-10-benzyloxybenzo[b]thieno[2,3-f]-1,5-oxazocin-6-one], for which the melting point was in the range of 195 to 200 °C. In data set [3], this compound showed a remaining activity at 1 µM of 83.3 ± 3.8%.
The compound `O=C1NCCSc2c1sc1c(OCc3ccccc3)cccc21` [kb-NB184-38, 3,4-Dihydro-7-benzyloxy-[1]benzothieno[2,3-f]-1,4-thiazepin-5(2H)-one] returned a melting point of 213 to 215 °C. The same compound yielded a remaining activity at 1 µM in data set [3] of 98.6 ± 4.1%.
Take `O=C1NCCSc2c1sc1c(O)cccc21` [kb-NB184-40, 3,4-Dihydro-7-hydroxy-[1]benzothieno[2,3-f]-1,4-thiazepin-5(2H)-one]: the melting point is 269 to 272 °C (dec.). Further, the remaining activity at 1 µM in data set [3] stood at 99 ± 11%.
The like results for `COc1cccc2c3c(sc12)C(=O)NCCS3` [kb-NB184-44, 3,4-Dihydro-7-methoxy-[1]benzothieno[2,3-f]-1,4-thiazepin-5(2H)-one] were, in that order, 220 to 224 °C and 77.5 ± 3.6%.
For `COc1ccc2sc3c(c2c1)[S+]([O-])CCNC3=O` (stereo not drawn) [kb-NB184-45, 3,4-Dihydro-9-methoxy-1-oxide-[1]benzothieno[2,3-f]-1,4-thiazepin-5(2H)-one], the melting point was 215 to 217 °C. The same compound had a remaining activity at 1 µM in data set [3] of 97 ± 16%.
Compound `COc1ccc2sc3c(c2c1)OCCCNC3=O` [kb-NB184-57, 2,3,4,5-Tetrahydro-10-methoxybenzo[b]thieno[2,3-f]-1,5-oxazocin-6-one] came in with a melting point of 233 to 237 °C. The compound also displayed a remaining activity at 1 µM in data set [3] of 62 ± 3.5%.
